Active and inactive are the calls of the source. The calls are words filed in the database; no cut-off is given here.
How the values were obtained:
[1] = Cytotoxicity against Drosophila melanogaster S2 cells assessed as cell viability up to 1 uM; format: cell-based
Dictyostelium discoideum [2] = assay: Induction of stalk cell differentiation in Dictyostelium discoideum HM44 at […] after 2 days by phase-contrast microscopy; format: functional, organism-based
S2 [3] = assay: Inhibition of innate immune response in Drosophila melanogaster S2 cells assessed as reduction in DAP-type peptidoglycans-mediated activation of Dpt-LacZ gene expression at 1 uM after 12 hrs by beta-galactosidase reporter assay; format: functional, cell-based
3T3-L1 = assay: Growth inhibition of mouse 3T3L1 cells at 10 uM after 3 days by Alamar blue assay; format: cell-based; details: 3t3-l1, 72 h
HeLa = assay: Growth inhibition of human HeLa cells at 5 uM after 3 days by Alamar blue assay; format: functional, cell-based
[4] = Cytotoxicity against Drosophila melanogaster S2 cells assessed as inhibition of beta-galactosidase gene expression; format: cell-based
K562 = assay: Growth inhibition of human K562 cells at 2 uM after 3 days by Alamar blue assay; format: functional, cell-based
S2 [5] = assay: Inhibition of heat shock-mediated activation of hs-Gal4/UAS-lacZ gene expression in Drosophila melanogaster S2 cells after 12 hrs by beta-galactosidase reporter assay; format: functional, cell-based
Dictyostelium discoideum [6] = assay: Induction of stalk cell differentiation in Dictyostelium discoideum HM44 after 2 days by phase-contrast microscopy; format: functional, organism-based
Dictyostelium discoideum [7] = assay: Induction of stalk cell differentiation in Dictyostelium discoideum HM44 at 1 nM after 2 days by phase-contrast microscopy; format: functional

Row | Compound | Activity [1] | Activity (Dictyostelium discoideum [2]) | inhibition (S2 [3]) | growth inhibition (GI) (3T3-L1) | growth inhibition (GI) (HeLa) | Activity [4] | growth inhibition (GI) (K562) | inhibition (S2 [5]) | Activity (Dictyostelium discoideum [6]) | Activity (Dictyostelium discoideum [7]) [%]
1 | CCCCCC(=O)c1c(OC)c(Cl)c2oc3c(Cl)c(OC)c(Cl)c(O)c3c2c1O | Non-toxic | inactive | Active | Toxic | Active | Non-toxic | Active | Dose-dependent effect |  | 
2 | CCCC(=O)c1c(OC)c(Cl)c2oc3c(Cl)c(OC)c(Cl)c(O)c3c2c1O | Non-toxic |  | Active | Toxic | Active | Non-toxic | Active | Dose-dependent effect | Dose-dependent effect | 
3 | CCCCCC(=O)c1c(O)c(Cl)c(OC)c(Cl)c1O |  |  |  |  |  |  |  |  |  | >80
4 | CCCC(=O)c1c(OC)c(Cl)c2oc3c(Cl)c(OC)c(Cl)c(O)c3c2c1OC |  | inactive | inactive | Non-toxic | inactive |  | inactive |  |  | 
